Source: patent publication US8759104B2, “Cationic lipids” (The University Court of the University of Edinburgh, priority 2010, dated 2014)

Assays:
HeLa cells [1] = assay: Transfection of pEGFP-C1 reporter plasmid into HeLa cells, GFP expression by flow cytometry; assay type: cell-based, human; conditions: for Transfection efficiency (percentage of transfected cells), HeLa / Transfection results (percentage of transfected cells), HeLa: HeLa cells 48 h after transfection with reporter plasmid, flow cytometry; for Transfection compared with the positive controls: N/P ratio 3, 1:1 mol mixture with DOPE, controls Effectene, Lipofectamine 2000, Fugene
Protocol: (§1) The corresponding cationic lipid (1 mM in methanol) were mixed in different proportions with DOPE (10 mg/mL in chloroform) and the organic solvent removed by evaporation in an oven (37° C.) overnight. The resultant thin films were then hydrated with PBS. The solutions were vortexed (10-20 s) and incubated at ambient temperature for 20 min. Plasmid DNA or siRNA solution (0.04 mg/mL in PBS or another isotonic solution) was subsequently added and the solution vortexed (10-20 s). The lipoplexes were incubated at room temperature for 20 min before being used.
(§2) Human HeLa cells were grown in RPMI supplemented with 4 mM glutamine, 10% FCS and 100 units/ml penicillin/streptomycin (RPMI-CM) until 80% confluence. HEK293 and B16F10 cells were grown in DMEM supplemented with 4 mM glutamine, 10% FCS and 100 units/ml penicillin/streptomycin (DMEM-CM) until 80% confluence. Cells were then suspended using trypsin/EDTA and counted. 2×10^4 cells in 150 μL of media per well were seeded in 96 well plates and incubated overnight. The day afterwards, the different lipoplex formulations were added. Each experiment was performed in quadruplicate, using Effectene® Transfection Reagent (Qiagen), Lipofectamine™ 2000 (Invitrogen) and Fugene (Roche) as positive controls and untreated cells as negative controls. After two days incubation at 37° C. and 5% CO2 (the change of media after transfection was not necessary), the green fluorescent protein (GFP) expression, as a consequence of transfecting the pEGFP-C1, was evidenced using a fluorescent microscope (Leica) and measured by flow cytometry. For the flow cytometry analysis, cells were washed twice with PBS, detached with trypsin/EDTA, harvested with 2% ferum bovine serum (FBS) in PBS, centrifuged and resuspended with 2% FBS in PBS and analyzed using a BD FACSaria flow cytometer. Transfection efficiency was measured as percentage of transfected cells.
(§3) Reagents that obtained greater than 50% transfection were also analyzed against HEK293 and B16F10 cell lines. Transfection results (+ percentages of transfection between 5-25%; ++ percentages of transfection between 25-50%; N.D. not determined). MTT toxicity assay results are indicated between brackets with 100% being cell viability of untreated cells.

HEK293 cells [2] = assay: Transfection of pEGFP-C1 reporter plasmid into HEK293 cells, GFP expression by flow cytometry; assay type: cell-based, human
Protocol: as §1, §2, §3

B16F10 cells [3] = assay: Transfection of pEGFP-C1 reporter plasmid into B16F10 cells, GFP expression by flow cytometry; assay type: cell-based, mouse
Protocol: as §1, §2, §3

HeLa cells [4] = assay: MTT cell viability assay of transfected HeLa cells; assay type: cell-based, human; conditions: 100% being cell viability of untreated cells; 24 h after addition of transfection agents
Protocol: as §3
(§4) Twenty-four hours after the addition of transfection agents, cell viability was measured using an MTT cell proliferation assay (LGC Promochem, Middlesex, UK), which was performed according to the manufacturer's instructions. Absorbance was read at 570 nm. […] The comparative data obtained with lipids 28a, 29a, 30a and 31a of the invention, Lipofectamine™ 2000, Fugene and Effectene® Transfection Reagent are shown between brackets in Table 2.

HEK293 cells [5] = assay: MTT cell viability assay of transfected HEK293 cells; assay type: cell-based, human; conditions: 100% being cell viability of untreated cells; 24 h after addition of transfection agents
Protocol: as §3, §4

B16F10 cells [6] = assay: MTT cell viability assay of transfected B16F10 cells; assay type: cell-based, mouse; conditions: 100% being cell viability of untreated cells; 24 h after addition of transfection agents
Protocol: as §3, §4

HeLa cells [7] = assay: Transfection of fluorescein-labelled siRNA (siGLO) into HeLa cells, flow cytometry; assay type: cell-based, human; conditions: 24 h incubation
Protocol: as §1
Cells were suspended using trypsin/EDTA and counted. 2×10^4 cells in 150 μL of RPMI-CM per well were seeded in 96-well plates and incubated overnight. The day afterwards, the different lipoplex formulations formulated with siGLO (fluorescein-labeled siRNA that localizes within cell nuclei (Dharmacon)) and added to the cells. […] After 24 h incubation at 37° C. and 5% CO2 (change of media after transfection was not necessary), the green fluorescence emitted by intracellular siGLO was imaged under microscope. […] For the flow cytometry analysis, cells were washed twice with PBS, detached with trypsin/EDTA, harvested with 2% FBS in PBS, centrifuged and resuspended with 2% FBS in PBS and analyzed using a BD FACSaria flow cytometer.

mice = assay: In vivo transfection of luciferase-expressing plasmid (pLux) in mice, luminescence imaging
Protocol: Experiments were performed to transfect a luciferase-expressing plasmid (pLux) by intravenous injection via the vein tail of mice: three transfected with pLux complexed with compound 29a and three (control) with naked pLux. Two days after instillation, firefly luciferin was administrated intraperitoneally and the mice imaged using an IVIS Spectrum.
The mouse depicted on the left was transfected with naked plasmid; the mouse the right was transfected with plasmid complexed with compound 29a. Mice (n=3, per experiment) were anaesthetised and intubated following standard protocols. 16 μg of a luciferase-reporter plasmid were used per mouse. […] Firefly luciferin (15 mg/kg) was administered intraperitoneally to the anesthetized mice 15 min before scanning for luminescence. Imaging was performed on the IVIS Spectrum (Caliper LS) with large binning, open filter for 10 min.

| Compound | Transfection efficiency (percentage of transfected cells), HeLa (HeLa cells [1]) [%] | Transfection compared with the positive controls (HeLa cells [1]) | Transfection efficiency (percentage of transfected cells), HEK293 (HEK293 cells [2]) [%] | Transfection efficiency (percentage of transfected cells), B16F10 (B16F10 cells [3]) [%] | MTT toxicity assay, cell viability (between brackets), HeLa (HeLa cells [4]) [%] | MTT toxicity assay, cell viability (between brackets), HEK293 (HEK293 cells [5]) [%] | MTT toxicity assay, cell viability (between brackets), B16F10 (B16F10 cells [6]) [%] | Cells fluorescently labelled after siRNA transfection (HeLa cells [7]) | Behaviour of mice during the study (mice; mice monitored on a daily basis, n=3 per experiment) | Luminescence after in vivo transfection of pLux (mice; mice, intravenous injection via tail vein, 16 μg plasmid per mouse, imaged 48 hours after transfection) | Location of highest luminescence signal (mice; mice, intravenous injection via tail vein, 48 hours after transfection) | Transfection results (percentage of transfected cells), HeLa (HeLa cells [1]) |
| --- | --- | --- | --- | --- | --- | --- | --- | --- | --- | --- | --- | --- |
| CCCCCCCCCCCCCCCC(=O)NCCN(CCNC(=O)CCCCCCCCCCCCCCC)C(=O)/C=C\C(=O)N[C@@H](CCCNC(=N)N)C(=O)N[C@@H](CCCNC(=N)N)C(N)=O.O=C(O)C(F)(F)F.O=C(O)C(F)(F)F [Compound A2-Sp2-P] | 86 | more effectively than the positive controls | 90 | 78 | 99 | 98 | 99 | over 96% | behaved normally | Positive luminescence was detected | at the point of injection | – |
| CCCCCCCCCCCCCCCC(=O)NCCN(CCNC(=O)CCCCCCCCCCCCCCC)C(=O)CCC(=O)N[C@@H](CCCNC(=N)N)C(=O)N[C@@H](CCCNC(=N)N)C(N)=O.O=C(O)C(F)(F)F.O=C(O)C(F)(F)F [Compound A2-Sp1-P] | 85 | more effectively than the positive controls | 89 | 74 | 99 | 97 | 98 | – | – | – | – | – |
| CCCCCCCCCCCCCCCC(=O)NCCN(CCNC(=O)CCCCCCCCCCCCCCC)C(=O)CCC(=O)N[C@@H](CCCNC(=N)N)C(=O)N[C@@H](CCCNC(=N)N)C(=O)N[C@@H](CCCNC(=N)N)C(N)=O.O=C(O)C(F)(F)F.O=C(O)C(F)(F)F.O=C(O)C(F)(F)F [Compound A3-Sp1-P] | 75 | – | 84 | 56 | 93 | 95 | 89 | – | – | – | – | – |
| CCCCCCCCCCCCCCCC(=O)NCCN(CCNC(=O)CCCCCCCCCCCCCCC)C(=O)/C=C\C(=O)N[C@@H](CCCNC(=N)N)C(=O)N[C@@H](CCCNC(=N)N)C(=O)N[C@@H](CCCNC(=N)N)C(N)=O.O=C(O)C(F)(F)F.O=C(O)C(F)(F)F.O=C(O)C(F)(F)F [Compound A3-Sp2-P] | 70 | – | 80 | 69 | 92 | 96 | 93 | – | – | – | – | – |
| CCCCCCCCCCCCCCCCCCCCCCCC(=O)NCCN(CCNC(=O)CCCCCCCCCCCCCCCCCCCCCCC)C(=O)/C=C\C(=O)N[C@@H](CCCNC(=N)N)C(=O)N[C@@H](CCCNC(=N)N)C(N)=O.O=C(O)C(F)(F)F.O=C(O)C(F)(F)F [Compound A2-Sp2-L] | – | – | – | – | – | – | – | – | – | – | – | + (percentages of transfection between 5-25%) |
| CCCCCCCCCCCCCCCCCC(=O)NCCN(CCNC(=O)CCCCCCCCCCCCCCCCC)C(=O)/C=C\C(=O)N[C@@H](CCCNC(=N)N)C(=O)N[C@@H](CCCNC(=N)N)C(N)=O.O=C(O)C(F)(F)F.O=C(O)C(F)(F)F [Compound A2-Sp2-S] | – | – | – | – | – | – | – | – | – | – | – | ++ (percentages of transfection between 25-50%) |
